Results published in ChEMBL document CHEMBL4382216, “Asymmetric synthesis and biological evaluation of imidazole- and oxazole-containing synthetic lipoxin A4 mimetics (sLXms)” (Eur J Med Chem, 2019).

Legend:
[1] = system: Mus musculus; assay: (§1) Anti-inflammatory activity in zymosan-induced C57BL/6J mouse peritonitis model assessed as reduction in total cell count in peritoneal cavity at 125 ng, ip pretreated for 30 mins followed by zymosan treatment and redosing of test compound at 1 hr post zymosan addition and measured at 24 hrs post zymosan addition by flow cytometry relative to basal level (reference value: 14); assay type: functional
[2] = system: Mus musculus; assay: as §1, with “PMN leukocytes level” for “reduction in total cell count”, “cytometry” for “cytometry relative to basal level”, “100%)” for “14)”; assay type: functional
[3] = system: Mus musculus; assay: as §1, with “as” for “as reduction in”, “cytometry” for “cytometry relative to basal level”, “100%)” for “14)”; assay type: functional
[4] = system: Mus musculus; assay: as §1, with “PMN leukocytes level” for “reduction in total cell count”, “43” for “125”, “cytometry” for “cytometry relative to basal level”, “100%)” for “14)”; assay type: functional
[5] = system: J774.1; assay: Anti-inflammatory activity in mouse J774.1 cells assessed as reduction in LPS-stimulated TNFalpha level at 10 nM preincubated for 1 hr followed by LPS stimulation for 24 hrs by ELISA relative to control; assay type: functional; parameters: scale not given: the % may be the effect or the level left
[6] = species on record: Homo sapiens; assay: Activation of Luc-fused NFkB (unknown origin) expressed in non-stimulated human THP1 cells assessed as relative luminescence unit at 10^-6 M after 24 hrs by luciferase reporter gene assay (reference value: 100%); assay type: cell-based
[7] = system: J774.1; assay: Anti-inflammatory activity in mouse J774.1 cells assessed as reduction in LPS-stimulated TNFalpha level at 100 nM preincubated for 1 hr followed by LPS stimulation for 24 hrs by ELISA relative to control; assay type: functional; parameters: scale not given: the % may be the effect or the level left

SMILES	fold change (FC) [1]	Emax [2] [%]	Emax [3] [%]	Emax [4] [%]	Activity [5] [%]	Activity [6] [%]	Activity [7] [%]
CCCCC[C@H](O)/C=C/C=C\C=C\C=C\[C@@H](O)[C@@H](O)CCCC(=O)O [LIPOXIN A4]	5	35.9	35.3	–	–	–	–
CCCCC[C@@H](O)c1nc(-c2ccccc2)n(-c2ccccc2)c1/C=C/[C@@H](O)[C@@H](O)CCCC(=O)OC	–	–	–	45.5	30	1.2	–
CCCCC[C@H](O)c1nc(-c2ccccc2)n(-c2ccccc2)c1/C=C/[C@@H](O)[C@@H](O)CCCC(=O)OC	–	–	–	18.2	–	1.3	41
